From US11834698B2, “Process for determining enzyme activity in a cell by activity-based reporter gene technology (ABRGT)” (INDIAN INSTITUTE OF SCIENCE EDUCATION AND RESEARCH, priority 2018, dated 2023)

Legend:
[1] = molecular target: T1, caspase-3 (Homo sapiens, UniProt P42574); conditions: previously shown; cited from earlier work
T1 sequence (P42574 29-175 limits assumed): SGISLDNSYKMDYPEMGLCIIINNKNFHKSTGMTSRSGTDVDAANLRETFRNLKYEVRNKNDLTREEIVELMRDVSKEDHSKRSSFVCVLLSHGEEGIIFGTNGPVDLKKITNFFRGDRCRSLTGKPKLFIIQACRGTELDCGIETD
T1 sequence (P42574 176-277 limits assumed): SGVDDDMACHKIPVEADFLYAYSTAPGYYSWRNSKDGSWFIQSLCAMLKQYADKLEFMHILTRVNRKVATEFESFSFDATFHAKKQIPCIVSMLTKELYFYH

[2] = test system: Jurkat cell lysate; assay: In-gel fluorescence assay of off-target labelling in Jurkat cells; assay type: cell-based; conditions: Jurkat cell lysate 2 μg/μL, probe 1 μM
Method: FIG. 5 depicts cellular off-target labelling of the probe 1 shown in Jurkat cells 2.5 million Jurkat cells were incubated with 1 μM probe 1 in the (b) presence or (c) the absence of STS (1 μM) for 6 h. Cells are incubated (a) without and (d) with the probe 1 and STS. Cells comprising labelled enzymes were lysed and analyzed by 12% SDS-PAGE followed by scanning for rhodamine fluorescence (Ex: 561 nm, Em: 605 nm) with a flat-bed laser scanner.
To rule out that the obtained FRET signal in [FIG. 2b (i)] is not because of random physical interaction between GFPspark and rhodamine dye, MCF-7 cells were transfected with a plasmid encoding for enhanced green fluorescent protein (EGFP). EGFP transfected MCF-7 cells were treated with STS (1 μM) for 4 h, labelled with the probe 1. […] In-gel fluorescence assay was also performed to validate the multiple off-targets labelling of probe 1 which has also been shown in the previous reports. […] The calculated FRET efficiency for (n=15 cells) is 35±1%. […] Caspase-3 activation was also monitored using probe 2 as fABP which is different from probe 1 in terms of peptide recognition sequence; DEVD in exchange for VAD as DEVD peptide sequence is more specific for caspases as compared to VAD. Probe 2 yielded a similar pattern of fluorescence signal in GFPspark, FRET and Rh channel as that of probe 1 [FIG. 7(a)]. The calculated FRET efficiency was 35% [FIG. 7(b)]. […]

Rhodamine-VAD-fluoromethyl ketone [probe 1]
affinity for caspase-3 [1]: moderate affinity | selectivity for caspase-3 [1]: low selectivity | off-target labelling, bands on SDS-PAGE gel upon rhodamine excitation [2]: multiple bands
